Measurements as given in patent US20170356895A1, “TOXICANT ASSAYS FOR CONSUMABLE PRODUCTS” (priority 2016, published 2017).

Test system: zebrafish (Danio rerio) AB strain embryos
Assay: Acute toxicity testing of extracts using zebrafish embryos (mortality rate after 48 hr exposure)
Assay type: in vivo
Details: 3.7 mg/L
Procedure: Extracts prepared as described in Example 1 were tested for acute toxicity using zebrafish (Danio rerio) AB strain embryos. Chicken breast extracts were diluted into zebrafish embryo culture medium at 0.25, 0.50, 1.00, 2.00 and 4.00 μl/ml. Zebrafish AB strain embryos of 4-128 cell stages were exposed to extract dilutions in a 96-well plate at 1 embryo per well. Each concentration was tested with 20 embryos. Zebrafish embryo culture medium and 3.7 mg/L dichloroaniline were included as negative and positive controls, respectively. After 48 hr exposure at 26° C., zebrafish embryos were observed under a stereomicroscope and fish embryos that were coagulated, tail not detached, and having no heart beat were marked as dead. Mortality rate for each concentration was calculated as the acute toxicity endpoint. The mortality rate for the negative control was 0% and for the positive control was 65%.
The acute toxicity of milk powder extracts prepared as described in Example 4 were tested for acute toxicity using zebrafish (Danio rerio) AB strain embryos. Milk powder extracts were diluted into zebrafish embryo culture medium at 0.33, 0.50, 0.76, 1.74 and 4.00 μl/ml. Zebrafish AB strain embryos of 4-128 cell stages were exposed to extract dilutions in a 96-well plate with 1 embryo per well. […] Mortality rate of each concentration was calculated as the acute toxicity endpoint. […]

## Nc1ccc(Cl)c(Cl)c1 [3,4-dichloroaniline]
48-hr exposure at 26° C., Example 5 (milk powder test)
  Mortality rate for positive control: 60%
48 hr exposure at 26° C., Example 2 (chicken breast test)
  Mortality rate for the positive control: 65%
